Source: US20130183239A1, “ISOTOPIC CARBON CHOLINE ANALOGS” (IMPERIAL COLLEGE, priority 2010, published 2013)

How the values were obtained:
[1] = mouse, in vivo
Description: (§1) Radiolabeled metabolites from plasma and tissues were quantified using a method adapted from Smith G, Zhao Y, Leyton J, et al. Radiosynthesis and pre-clinical evaluation of [(18)F]fluoro-[1,2-(2)H(4)]choline. Nucl Med Biol. 2011; 38:39-51. Briefly, tumor-bearing mice under terminal anaesthesia were administered a bolus i.v. injection of one of the following radiotracers: ^11C-choline, ^11C-D4-choline (˜18.5 MBq) or ^18F-D4-choline (˜3.7 MBq), and sacrificed by exsanguination via cardiac puncture at 2, 15, 30 or 60 min post radiotracer injection. For automated radiosynthesis methodology, see Example 22. Tumor, kidney and liver samples were immediately snap-frozen in liquid nitrogen. Aliquots of heparinized blood were rapidly centrifuged (14000 g, 5 min, 4° C.) to obtain plasma. Plasma samples were subsequently snap-frozen in liquid nitrogen and kept on dry ice prior to analysis.
(§2) For analysis, samples were thawed and kept at 4° C. immediately before use. To ice cold plasma (200 μl) was added ice cold methanol (1.5 mL) and the resulting suspension centrifuged (14000 g; 4° C.; 3 min). The supernatant was then decanted and evaporated to dryness on a rotary evaporator (bath temperature, 40° C.), then resuspended in HPLC mobile phase (Solvent A: acetonitrile/water/ethanol/acetic acid/1.0 M ammonium acetate/0.1 M sodium phosphate [800/127/68/2/3/10]; 1.1 mL). Samples were filtered through a hydrophilic syringe filter (0.2 μm filter; Millex PTFE filter, Millipore, Mass., USA) and the sample (˜1 mL) then injected via a 1 mL sample loop onto the HPLC for analysis. Tissues were homogenized in ice-cold methanol (1.5 mL) using an Ultra-Turrax T-25 homogenizer (IKA Werke GmbH and Co. KG, Staufen, Germany) and subsequently treated as per plasma samples.
(§3) Samples were analyzed on an Agilent 1100 series HPLC system (Agilent Technologies, Santa Clara, Calif., USA), configured as described above, using the method of Leyton J, Smith G, Zhao Y, et al. [18F]fluoromethyl-[1, 2-2H4]-choline: a novel radiotracer for imaging choline metabolism in tumors by positron emission tomography. Cancer Res. 2009; 69:7721-7728. A μBondapak C18 HPLC column (Waters, Milford, Mass., USA; […]), stationary phase and a mobile phase comprising of Solvent A (vide supra) and Solvent B (acetonitrile/water/ethanol/acetic acid/1.0 M ammonium acetate/0.1 M sodium phosphate (400/400/68/44/88/10)), delivered at a flow rate of 3 mL/min were used for analyte separation. The gradient was set as follows: 0% B for 5 min; 0% to 100% B in 10 min; 100% B for 0.5 min; 100% to 0% B in 2 min; 0% B for 2.5 min.
A 2-tissue irreversible compartmental model was employed to fit the TACs, as has been previously established for ^11C-choline (Kenny L M, Contractor K B, Hinz R, et al. Reproducibility of [11C]choline-positron emission tomography and effect of trastuzumab. Clin Cancer Res. Aug. 15 2010; 16(16):4236-4245; and Sutinen E, Nurmi M, Roivainen A, et al. Kinetics of [(11)C]choline uptake in prostate cancer: a PET study. Eur J Nucl Med Mol. Imaging. March 2004; 31(3):317-324). An estimate of the whole blood TAC (wbTAC(t)) was derived from the PET image itself, as described above. […] Therefore it was fitted with a sum of 3 exponentials from the peak on and the fitted function was used as input function in the kinetic modeling (after metabolite correction, see below). […] The pf values were fitted to a sum of two exponentials with the constraint pf(t=0)=1 to obtain the function pf(t).

HCT116 tumors = conditions: mouse, in vivo
Description: as §1, §2, §3
^11C-choline, ^11C-D4-choline and ^18F-D4-choline metabolism were measured in HCT116 tumors (FIG. 22).

[2] = mouse, in vivo; remark: listed apart in the source
Description: ^11C-choline, ^11C-D4-choline (˜18.5 MBq) and ^18F-D4-choline (˜3.7 MBq) were each injected via the tail vein of anaesthetized BALB/c nude mice. The mice were maintained under anesthesia and sacrificed by exsanguination via cardiac puncture at 2, 15, 30 or 60 min post radiotracer injection to obtain blood, plasma, heart, lung, liver, kidney and muscle. Tissue radioactivity was determined on a gamma counter (Cobra II Auto-Gamma counter, Packard Biosciences Co, Pangbourne, UK) and decay corrected. Data were expressed as percent injected dose per gram of tissue.
Time course biodistribution was performed in non-tumor-bearing male nude mice with ^11C-choline, ^11C-D4-choline and ^18F-D4-choline tracers.

[3] = test system: human melanoma SKMEL-28 xenografts; conditions: mouse, in vivo
Description: Dynamic [^18F]FCH and [^18F]D4-FCH imaging scans were carried out on a dedicated small animal PET scanner, quad-HIDAC (Oxford Positron Systems). The features of this instrument have been described previously (Barthel, H., et al., Cancer Res 2003; 63(13):3791-8). For scanning the tail veins, vehicle- or drug-treated mice were cannulated after induction of anesthesia (isofluorane/O2/N2O). The animals were placed within a thermostatically controlled jig (calibrated to provide a rectal temperature of ˜37° C.) and positioned prone in the scanner. [^18F]FCH or [^18F]D4-FCH (2.96-3.7 MBq) was injected via the tail vein cannula and scanning commenced. Dynamic scans were acquired in list mode format over a 60 min period as reported previously (Leyton, J., et al., Cancer Research 2006; 66(15):7621-9). The acquired data were sorted into 0.5 mm sinogram bins and 19 time frames (0.5×0.5×0.5 mm voxels; 4×15, 4×60, and 11×300 s) for image reconstruction, which was done by filtered back-projection using a two-dimensional Hamming filter (cutoff 0.6). The image data sets were visualized using the Analyze software (version 6.0; Biomedical Imaging Resource, Mayo Clinic). Cumulative images of 30 to 60 min dynamic data were used for visualization of radiotracer uptake and to draw regions of interest. Regions of interest were defined manually on five adjacent tumor regions (each 0.5 mm thickness). Dynamic data from these slices were averaged for each tissue (liver, kidney, muscle, urine, and tumor) and at each of the 19 time points to obtain time versus radioactivity curves. Corresponding whole body time versus radioactivity curves representing injected radioactivity were obtained by adding together radioactivity in all 200×160×160 reconstructed voxels. Tumor radioactivity was normalized to whole-body radioactivity and expressed as percent injected dose per voxel (% ID/vox). The normalized uptake of radiotracer at 60 min (% ID/vox60) was used for subsequent comparisons. The average of the normalized maximum voxel intensity across five slices of tumor % IDvox60max was also use for comparison to account for tumor heterogeneity and existence of necrotic regions in tumor. The area under the curve was calculated as the integral of % ID/vox from 0 to 60 min.

SMILES: [2H]C([2H])(O)C([2H])([2H])[N+](C)(C)C[18F] [[^18F]D4-FCH, [^18F]fluoromethyl-[1,2-^2H4]-choline]
- liver radioactivity as betaine [1]: 15.0±3.6%
- liver radioactivity present as phosphocholine [1]: ~80%
- plasma radioactivity in the form of betaine [1]: 43.7±12.4%
- resistance to oxidation in the kidney [1]: more resistant to oxidation
- tumor betaine radioactivity (HCT116 tumors): 14.0±3.0%
- tumor radioactivity corresponding to phosphocholine (HCT116 tumors): 45.1±3.2%
- higher un-metabolized parent tracer in tumor compared to 11C-D4-choline (HCT116 tumors; 1 h): 4.0 fold
- higher un-metabolized parent tracer in tumor compared to 11C-choline (HCT116 tumors; 1 h): 2.7 fold
- increase in kidney retention compared to 11C-choline [2]: 3.3 fold
- urinary excretion [2]: trend towards increased urinary excretion
- % IDvox60max (average of maximum pixel % ID/vox60 across 5 slices) [3]: significantly higher
- tumor area under the time versus radioactivity curve (AUC) [3]: higher
